ChEMBL document CHEMBL3727348, “3-(aryl or heteroaryl) methyleneindolin-2-one derivatives as inhibitors of cancer stem cell pathway kinases for the treatment of cancer” (2014)

The compounds below were run on FaDu (assay: Cytotoxic activity against human FADU cancer stem cells incubated for 72 hrs by Cell-titer-Glo luminescence assay). Settings: not given.
Type: functional, cell-based

| SMILES | IC50 [µM] |
| --- | --- |
| O=C1Nc2ccc(-c3csc(-c4ccncc4)n3)cc2/C1=C/c1cnc[nH]1 | 22.1 |
| CCN(CC)CCNC(=O)c1c(C)[nH]c(/C=C2\C(=O)Nc3ccc(-c4cnccn4)cc32)c1C | 0.23 |
| CCOC(=O)c1[nH]c(/C=C2\C(=O)Nc3ccc(-c4csc(-c5ccccc5)n4)cc32)c2c1CCCC2 | 2.91 |
| CCN(CC)CCNC(=O)c1c(C)[nH]c(/C=C2\C(=O)Nc3ccc(-c4ccc(C=O)cc4)cc32)c1C | 7.51 |
| CCN(CC)CCNC(=O)c1c(C)[nH]c(/C=C2\C(=O)Nc3ccc(-c4cccc(OC)n4)cc32)c1C | 0.19 |
| Cc1ccc(-c2ccc3c(c2)NC(=O)/C3=C\c2[nH]c(C)cc2C)cn1 | 3.61 |
| CCN(CC)CCNC(=O)c1c(C)[nH]c(/C=C2\C(=O)Nc3ccc(-c4csc(C(=O)O)c4)cc32)c1C | 14.1 |
| CCN(CC)CCNC(=O)c1c(C)[nH]c(/C=C2\C(=O)Nc3ccc(-c4cncnc4)cc32)c1C | 10.1 |
| CCN(CC)CCNC(=O)c1c(C)[nH]c(/C=C2\C(=O)Nc3ccc(-c4cscc4C)cc32)c1C | 9.1 |
| Cc1cc(C)c(/C=C2\C(=O)Nc3ccc(-c4ccc(O)cc4C)cc32)[nH]1 | 14.4 |
| O=C1Nc2ccc(-c3csc(-c4ccccc4)n3)cc2/C1=C/c1cc2c([nH]1)CCCC2 | 4.09 |
| CCN(CC)CCNC(=O)c1c(C)[nH]c(/C=C2\C(=O)Nc3cc(-c4cnc5ccccc5c4)ccc32)c1C | 2.83 |

These compounds were tested on FaDu (assay: Cytotoxic activity against human FADU bulk cells incubated for 72 hrs by Cell-titer-Glo luminescence assay). Settings: not given.
Type: functional, cell-based

| SMILES | IC50 [µM] |
| --- | --- |
| O=C1Nc2ccc(-c3csc(-c4ccncc4)n3)cc2/C1=C/c1cnc[nH]1 | 1.66 |
| CCN(CC)CCNC(=O)c1c(C)[nH]c(/C=C2\C(=O)Nc3ccc(-c4cnccn4)cc32)c1C | 6.62 |
| CCN(CC)CCNC(=O)c1c(C)[nH]c(/C=C2\C(=O)Nc3ccc(-c4ccc(C=O)cc4)cc32)c1C | 12.1 |
| CCN(CC)CCNC(=O)c1c(C)[nH]c(/C=C2\C(=O)Nc3ccc(-c4cccc(OC)n4)cc32)c1C | 1.76 |
| CCN(CC)CCNC(=O)c1c(C)[nH]c(/C=C2\C(=O)Nc3ccc(-c4cncnc4)cc32)c1C | 4.55 |
| CCN(CC)CCNC(=O)c1c(C)[nH]c(/C=C2\C(=O)Nc3ccc(-c4cscc4C)cc32)c1C | 3.74 |
| Cc1cc(C)c(/C=C2\C(=O)Nc3ccc(-c4ccc(O)cc4C)cc32)[nH]1 | 14.7 |
| O=C1Nc2ccc(-c3csc(-c4ccccc4)n3)cc2/C1=C/c1cc2c([nH]1)CCCC2 | 20.2 |
| CCN(CC)CCNC(=O)c1c(C)[nH]c(/C=C2\C(=O)Nc3cc(-c4cnc5ccccc5c4)ccc32)c1C | 12.9 |

What follows are compounds tested on A549 (assay: Cytotoxic activity against human A549 cancer stem cells incubated for 72 hrs by Cell-titer-Glo luminescence assay). Settings: A549, 72 h.
Type: functional, cell-based

| SMILES | IC50 [µM] |
| --- | --- |
| O=C1Nc2ccc(-c3csc(-c4ccncc4)n3)cc2/C1=C/c1cnc[nH]1 | 7.18 |
| CCN(CC)CCNC(=O)c1c(C)[nH]c(/C=C2\C(=O)Nc3ccc(-c4cnccn4)cc32)c1C | 13.2 |
| CCN(CC)CCNC(=O)c1c(C)[nH]c(/C=C2\C(=O)Nc3ccc(-c4ccc(C=O)cc4)cc32)c1C | 5.84 |
| CCN(CC)CCNC(=O)c1c(C)[nH]c(/C=C2\C(=O)Nc3ccc(-c4cccc(OC)n4)cc32)c1C | 2.24 |
| Cc1ccc(-c2ccc3c(c2)NC(=O)/C3=C\c2[nH]c(C)cc2C)cn1 | 23.7 |
| CCN(CC)CCNC(=O)c1c(C)[nH]c(/C=C2\C(=O)Nc3ccc(-c4csc(C(=O)O)c4)cc32)c1C | 14.1 |
| CCN(CC)CCNC(=O)c1c(C)[nH]c(/C=C2\C(=O)Nc3ccc(-c4cncnc4)cc32)c1C | 18 |
| CCN(CC)CCNC(=O)c1c(C)[nH]c(/C=C2\C(=O)Nc3ccc(-c4cscc4C)cc32)c1C | 3.94 |
| Cc1cc(C)c(/C=C2\C(=O)Nc3ccc(-c4ccc(O)cc4C)cc32)[nH]1 | 36.8 |
| O=C1Nc2ccc(-c3csc(-c4ccccc4)n3)cc2/C1=C/c1cc2c([nH]1)CCCC2 | 1.42 |
| CCN(CC)CCNC(=O)c1c(C)[nH]c(/C=C2\C(=O)Nc3cc(-c4cnc5ccccc5c4)ccc32)c1C | 11.6 |

The compounds below were run on ACHN (assay: Cytotoxic activity against human ACHN cancer stem cells incubated for 72 hrs by Cell-titer-Glo luminescence assay). Settings: not given.
Type: functional, cell-based

| SMILES | IC50 [µM] |
| --- | --- |
| O=C1Nc2ccc(-c3csc(-c4ccncc4)n3)cc2/C1=C/c1cnc[nH]1 | 28.9 |
| CCN(CC)CCNC(=O)c1c(C)[nH]c(/C=C2\C(=O)Nc3ccc(-c4cnccn4)cc32)c1C | 2.65 |
| CCOC(=O)c1[nH]c(/C=C2\C(=O)Nc3ccc(-c4csc(-c5ccccc5)n4)cc32)c2c1CCCC2 | 1.6 |
| CCN(CC)CCNC(=O)c1c(C)[nH]c(/C=C2\C(=O)Nc3ccc(-c4ccc(C=O)cc4)cc32)c1C | 4.34 |
| CCN(CC)CCNC(=O)c1c(C)[nH]c(/C=C2\C(=O)Nc3ccc(-c4cccc(OC)n4)cc32)c1C | 0.24 |
| Cc1ccc(-c2ccc3c(c2)NC(=O)/C3=C\c2[nH]c(C)cc2C)cn1 | 4.55 |
| CCN(CC)CCNC(=O)c1c(C)[nH]c(/C=C2\C(=O)Nc3ccc(-c4csc(C(=O)O)c4)cc32)c1C | 1.28 |
| CCN(CC)CCNC(=O)c1c(C)[nH]c(/C=C2\C(=O)Nc3ccc(-c4cncnc4)cc32)c1C | 0.55 |
| CCN(CC)CCNC(=O)c1c(C)[nH]c(/C=C2\C(=O)Nc3ccc(-c4cscc4C)cc32)c1C | 0.48 |
| Cc1cc(C)c(/C=C2\C(=O)Nc3ccc(-c4ccc(O)cc4C)cc32)[nH]1 | 21.1 |
| O=C1Nc2ccc(-c3csc(-c4ccccc4)n3)cc2/C1=C/c1cc2c([nH]1)CCCC2 | 2.52 |
| CCN(CC)CCNC(=O)c1c(C)[nH]c(/C=C2\C(=O)Nc3cc(-c4cnc5ccccc5c4)ccc32)c1C | 1.07 |

What follows are compounds tested on A549 (assay: Cytotoxic activity against human A549 bulk cells incubated for 72 hrs by Cell-titer-Glo luminescence assay). Settings: A549, 72 h.
Type: functional, cell-based

| SMILES | IC50 [µM] |
| --- | --- |
| O=C1Nc2ccc(-c3csc(-c4ccncc4)n3)cc2/C1=C/c1cnc[nH]1 | 9.19 |
| CCN(CC)CCNC(=O)c1c(C)[nH]c(/C=C2\C(=O)Nc3ccc(-c4cnccn4)cc32)c1C | 10.6 |
| CCN(CC)CCNC(=O)c1c(C)[nH]c(/C=C2\C(=O)Nc3ccc(-c4ccc(C=O)cc4)cc32)c1C | 10.6 |
| CCN(CC)CCNC(=O)c1c(C)[nH]c(/C=C2\C(=O)Nc3ccc(-c4cccc(OC)n4)cc32)c1C | 2.79 |
| CCN(CC)CCNC(=O)c1c(C)[nH]c(/C=C2\C(=O)Nc3ccc(-c4csc(C(=O)O)c4)cc32)c1C | 7.79 |
| CCN(CC)CCNC(=O)c1c(C)[nH]c(/C=C2\C(=O)Nc3ccc(-c4cncnc4)cc32)c1C | 7.33 |
| CCN(CC)CCNC(=O)c1c(C)[nH]c(/C=C2\C(=O)Nc3ccc(-c4cscc4C)cc32)c1C | 2.01 |
| Cc1cc(C)c(/C=C2\C(=O)Nc3ccc(-c4ccc(O)cc4C)cc32)[nH]1 | 12.5 |
| CCN(CC)CCNC(=O)c1c(C)[nH]c(/C=C2\C(=O)Nc3cc(-c4cnc5ccccc5c4)ccc32)c1C | 15.8 |

What follows are compounds tested on ACHN (assay: Cytotoxic activity against human ACHN bulk cells incubated for 72 hrs by Cell-titer-Glo luminescence assay). Settings: not given.
Type: functional, cell-based

| SMILES | IC50 [µM] |
| --- | --- |
| O=C1Nc2ccc(-c3csc(-c4ccncc4)n3)cc2/C1=C/c1cnc[nH]1 | 3.61 |
| CCN(CC)CCNC(=O)c1c(C)[nH]c(/C=C2\C(=O)Nc3ccc(-c4cnccn4)cc32)c1C | 10.1 |
| CCOC(=O)c1[nH]c(/C=C2\C(=O)Nc3ccc(-c4csc(-c5ccccc5)n4)cc32)c2c1CCCC2 | 0.83 |
| CCN(CC)CCNC(=O)c1c(C)[nH]c(/C=C2\C(=O)Nc3ccc(-c4ccc(C=O)cc4)cc32)c1C | 2.81 |
| CCN(CC)CCNC(=O)c1c(C)[nH]c(/C=C2\C(=O)Nc3ccc(-c4cccc(OC)n4)cc32)c1C | 1.96 |
| Cc1ccc(-c2ccc3c(c2)NC(=O)/C3=C\c2[nH]c(C)cc2C)cn1 | 22 |
| CCN(CC)CCNC(=O)c1c(C)[nH]c(/C=C2\C(=O)Nc3ccc(-c4csc(C(=O)O)c4)cc32)c1C | 7.74 |
| CCN(CC)CCNC(=O)c1c(C)[nH]c(/C=C2\C(=O)Nc3ccc(-c4cncnc4)cc32)c1C | 3.66 |
| CCN(CC)CCNC(=O)c1c(C)[nH]c(/C=C2\C(=O)Nc3ccc(-c4cscc4C)cc32)c1C | 2.68 |
| Cc1cc(C)c(/C=C2\C(=O)Nc3ccc(-c4ccc(O)cc4C)cc32)[nH]1 | 14.9 |
| O=C1Nc2ccc(-c3csc(-c4ccccc4)n3)cc2/C1=C/c1cc2c([nH]1)CCCC2 | 34.6 |
